# According to ChEMBL document CHEMBL1201862, “PubChem BioAssay data set” (2004):
#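 The compound was tested at five concentrations on cells cultured in 96-well plates, with a 48-hour exposure period. Here, GI50 denotes the concentration required for 50% inhibition of growth.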 Calls of active or inactive are those of the source. Cut-off read from the data, not from the text of the source: active = GI50 up to about 1.1 µM and inactive = higher.
# How the values were obtained:
# Experiment in all cases: NCI-60 cell line screen, 48 h
# [1] = system: DLD-1
# [2] = system: KM-20L2
# [3] = system: M19-MEL
# [4] = system: LXFL 529
# [5] = system: HOP-18
# [6] = system: SNB-78
# [7] = system: XF498
# [8] = system: RXF 631
# [9] = system: DMS-273
SMILES,GI50 [1],GI50 [2],GI50 [3],GI50 [4],GI50 [5],GI50 [6],GI50 [7],GI50 [8],GI50 [9]
CS/C(c1ccccc1)=[N+](\[O-])Cc1ccccc1,> 100 µM (inactive),> 100 µM (inactive),> 100 µM (inactive),> 100 µM (inactive),> 100 µM (inactive),> 100 µM (inactive),> 100 µM (inactive),,
COc1ccc([C@H]2[C@@H]3CCc4ccccc4C3=NN2C(N)=S)cc1OC,53 µM (inactive),57.7 µM (inactive),34.3 µM (inactive),24.2 µM (inactive),> 100 µM (inactive),> 100 µM (inactive),> 100 µM (inactive),,
CC/C(CC(=O)CCC(=O)Nc1c(C)cccc1C)=N\NC(=O)NN,> 100 µM (inactive),> 100 µM (inactive),> 100 µM (inactive),> 100 µM (inactive),> 100 µM (inactive),> 100 µM (inactive),,> 100 µM (inactive),
CN(C)C(=O)Nc1c([N+](=O)[O-])cc(C(F)(F)F)cc1[N+](=O)[O-],,26.5 µM (inactive),,40.9 µM (inactive),,33.5 µM (inactive),16.8 µM (inactive),,43.8 µM (inactive)
CCC1(Cl)C(=O)NC(=O)N(C2CC(O)C(CO)O2)C1N=[N+]=[N-] (stereo not given),> 100 µM (inactive),> 100 µM (inactive),> 100 µM (inactive),> 100 µM (inactive),,> 100 µM (inactive),> 100 µM (inactive),> 100 µM (inactive),> 100 µM (inactive)
COc1cc2c(cc1OC)[C@@H](Nc1ccc(F)cc1)C1COC(=O)[C@@H]1C2c1cc(OC)c(O)c(OC)c1 (stereo not given in full),3.13 µM (inactive),3.04 µM (inactive),5.08 µM (inactive),19.6 µM (inactive),5.35 µM (inactive),> 20.4 µM (inactive),3 µM (inactive),1.73 µM (inactive),0.0832 µM (active)
COC(=O)CCC1CCc2c(OC)ccc(O)c2C1=O (stereo not given),> 100 µM (inactive),,> 100 µM (inactive),> 100 µM (inactive),,> 100 µM (inactive),,> 100 µM (inactive),> 100 µM (inactive)
CC(=O)OC1C(O)C(C)OC(OC2C(OC(=O)C3CCC4C(C3)OC3(CC(OC(=O)/C=C/c5ccccc5)C(C)CO3)C43CO3)OC(C)C(O)C2OC(C)=O)C1O (stereo not given),0.38 µM (active),0.041 µM (active),0.0174 µM (active),,0.0906 µM (active),0.056 µM (active),0.0357 µM (active),,0.0259 µM (active)
COc1cccc2c1C(=O)OC2c1cccc2ccccc12 (stereo not given),> 100 µM (inactive),> 100 µM (inactive),> 100 µM (inactive),> 100 µM (inactive),> 85.5 µM (inactive),> 100 µM (inactive),34.8 µM (inactive),,> 100 µM (inactive)
O=C(NC1=C(Cl)C(=O)c2ccccc2C1=O)C(=O)C(C(=O)c1ccc2ccccc2c1)C1OC(=O)c2ccccc21 (stereo not given),4.31 µM (inactive),4.52 µM (inactive),0.309 µM (active),4.43 µM (inactive),,3.76 µM (inactive),,,
COc1ccc(-c2cc3ccccc3[nH]c2=O)cc1OC,> 100 µM (inactive),> 100 µM (inactive),> 100 µM (inactive),> 100 µM (inactive),> 100 µM (inactive),> 100 µM (inactive),> 100 µM (inactive),,> 100 µM (inactive)
CNC(=O)OC1/C(C)=C\C(C)C(O)C(OC)CC(C)CC2=C(OC)C(=O)C=C(C2=O)N(C)C(=O)/C(C)=C/C=C\C1OC (stereo not given),1.96 µM (inactive),2.53 µM (inactive),5 µM (inactive),4.86 µM (inactive),9.27 µM (inactive),7.21 µM (inactive),3.72 µM (inactive),15.1 µM (inactive),3.31 µM (inactive)
Cc1cc(N(CCOS(C)(=O)=O)CCOS(C)(=O)=O)ccc1/C=N/c1ccc(-c2nc(Cc3ccccc3)sc2C)cc1,12.8 µM (inactive),7.19 µM (inactive),10 µM (inactive),16.6 µM (inactive),6.64 µM (inactive),32.9 µM (inactive),2.26 µM (inactive),,1.87 µM (inactive)
Cc1cccc(C2SCc3nc4ccccc4n32)c1 (stereo not given),25.2 µM (inactive),,24 µM (inactive),25.2 µM (inactive),< 0.01 µM (active),27.5 µM (inactive),,,
N#CC(C(=O)/C(=N/Nc1nc(S)nn1N)C(C#N)c1ccccc1)c1ccccc1 (stereo not given),> 100 µM (inactive),> 100 µM (inactive),> 100 µM (inactive),> 100 µM (inactive),0.403 µM (active),> 100 µM (inactive),> 100 µM (inactive),> 100 µM (inactive),> 100 µM (inactive)
CC(C)C(NCc1c2ccccc2[n+](C)c2ccccc12)C(=O)O (stereo not given),2.39 µM (inactive),2.78 µM (inactive),7.33 µM (inactive),3.53 µM (inactive),5.78 µM (inactive),5.73 µM (inactive),4.99 µM (inactive),4.74 µM (inactive),3.25 µM (inactive)
COc1cccc2nc3cc(C)c(C)cc3nc12,79.1 µM (inactive),> 100 µM (inactive),> 100 µM (inactive),> 100 µM (inactive),> 100 µM (inactive),> 100 µM (inactive),> 100 µM (inactive),> 100 µM (inactive),> 100 µM (inactive)
COC(=O)c1cc2c3ccccc3n(C(C)=O)c2cn1,> 100 µM (inactive),> 100 µM (inactive),> 100 µM (inactive),66.4 µM (inactive),44.9 µM (inactive),> 100 µM (inactive),38.6 µM (inactive),77.6 µM (inactive),> 100 µM (inactive)
N#CC(N)(C(=O)C(=O)NCCCNC(=O)C(=O)C(N)(C#N)c1ccc(Cl)cc1)c1ccc(Cl)cc1 (stereo not given),> 100 µM (inactive),> 100 µM (inactive),> 100 µM (inactive),> 100 µM (inactive),> 100 µM (inactive),> 100 µM (inactive),> 100 µM (inactive),> 100 µM (inactive),> 100 µM (inactive)
CC1OC(OC2C(OC(=O)[C@]34CCC(C)(C)CC3C3=CCC5[C@@]6(C)C[C@H](O)[C@H](OC7OC(CO)C(O)C(O)C7N)[C@@](C)(C(=O)O)C6CC[C@@]5(C)C3(C)CC4)OCC(O)C2O)C(O)C(O)C1OC1OCC(O)C(O)C1O (stereo not given in full),> 100 µM (inactive),> 100 µM (inactive),> 100 µM (inactive),,> 100 µM (inactive),> 100 µM (inactive),,,> 100 µM (inactive)
Cc1cn(C2CC3C(COCN3O)O2)c(=O)[nH]c1=O (stereo not given),,> 100 µM (inactive),> 100 µM (inactive),> 100 µM (inactive),,,> 100 µM (inactive),,> 100 µM (inactive)
